Results taken from paper PMC5614982, “Impact of Gastric H^+/K^+-ATPase rs2733743 on the Intragastric pH-Values of Dexlansoprazole Injection in Chinese Subjects” (Frontiers in Pharmacology, 2017).
Marks after values point to notes of the source that are not given here.

Test system: intragastric pH
Test: 24-h intragastric pH monitoring after single intravenous dexlansoprazole in healthy Chinese subjects
Assay type: in vivo, human
Conditions: 30 mg iv
Procedure: Dexlansoprazole injection (30 mg per vial) used in the PK and PD study was manufactured by Nanjing Yoko Pharma Co., Ltd. (Nanjing, China). Subjects received an intravenous infusion of 20 or 30 mg dexlansoprazole injection in sterile saline solution (100 mL/h, 60 min). The study drug was administrated with an infusing pump (SA213, Lifepum, Beijing, China) and given through an intravenous catheter in the antecubital vein opposite to the one from which blood samples were taken.
An ambulatory pH recorder (Orion II, MMS, USA) with a disposable pH catheter (VersaFlex, MMS, USA) was used to monitor intragastric pH. The electrode was placed in water for at least 10 min and then calibrated using standard buffer solutions (pH 1.07 and 7.01) before intubation. Both calibration and intubation processes were conducted under the guidance of MMS Virtual Instructor Program. The catheter, trans nasally placed 10 cm under the lower esophageal sphincter, was identified by a sharp decrease in pH (Wang et al., [2010], [2011]). Subjects were intubated on baseline and the day of dosing at about 7:30 a.m., and the intragastric pH data were recorded continuously for 24 h from 8:00 a.m. Intragastric pH was sampled every second, and the data were stored in a MMS Database program (MMS, USA). The PD parameters including Median (pH), Mean (pH), TpH≥3 (%), TpH≥4 (%), TpH≥6 (%), TpH≥6, and AUC^pH−t were analyzed by the MMS Database program.
Median (pH) and mean (pH) were well-investigated in most studies, and the percentage time of pH ≥ 4 (or pH ≥ 4 holding time ratio) was the benchmark for predicting clinical efficacy of PPIs in treating acid-related diseases (Metz et al., [2009]). Novel parameter TpH≥6 (time to first gastric pH ≥ 6, min) and AUCτ 1-τ 2pH-t (area under pH-time curve from τ1 to τ2, pH·s) were defined to evaluate the velocity and extent of pharmacodynamics with more accuracy. All parameters were calculated and compared according to time periods of 0–24, 0–4, 4–10, 10–14, and 14–24 h post dosing.
The parameter AUCτ 1-τ 2pH-t was calculated as follows:
Where t represented the time duration measured by seconds, AUCτ 1-τ 210-t was the area between the pH line = 10 and the pH-time curve, which was generated by the MMS software.
Baseline-adjusted PD parameters were calculated as follows: for example, ΔAUC^pH−t = AUC^pH−t − AUC^pH−tbaseline, ΔMean (pH) = Mean (pH) − Mean (pH)^baseline, and ΔMedian (pH) = Median (pH) − Median (pH)^baseline.

[1] = CYP2C19 EMs, H+/K+-ATPase WT (n = 6), 0–4 h
[2] = CYP2C19 EMs, H+/K+-ATPase WT (n = 6), 0–24 h
[3] = CYP2C19 EMs, H+/K+-ATPase WT (n = 6), 14–24 h
[4] = H+/K+-ATPase Het (n = 10), 0–4 h

**Q.** What does the source list for `Cc1c(OCC(F)(F)F)ccnc1C[S@@+]([O-])c1nc2ccccc2[nH]1` [dexlansoprazole]?
**A.** Mean (pH) [1]: 6.1 ± 0.5 pH; Median (pH) [1]: 6.9 ± 0.5 pH; TpH≥3(%) [1]: 80.8 ± 8.4%; TpH≥4(%) [1]: 76.4 ± 9.4%; TpH≥6(%) [1]: 66.9 ± 14.8%; ΔMean (pH) [1]: 3.4 ± 0.7 pH; ΔMedian (pH) [1]: 4.5 ± 0.7^b pH; ΔTpH≥3(%) [1]: 51.7 ± 34.6%; ΔTpH≥4 (%) [1]: 58.6 ± 15.0%; ΔTpH≥6(%) [1]: 60.9 ± 12.6%; Mean (pH) [2]: 5.6 ± 1.1 pH; Median (pH) [2]: 5.8 ± 1.4 pH; TpH≥3(%) [2]: 79.8 ± 16.2%; TpH≥4(%) [2]: 73.1 ± 20.0%; TpH≥6(%) [2]: 53.5 ± 23.6%; ΔMean (pH) [2]: 2.4 ± 0.8^c pH; ΔMedian (pH) [2]: 3.2 ± 1.0 pH; ΔTpH≥3(%) [2]: 35.3 ± 10.3^c %; ΔTpH≥4 (%) [2]: 41.0 ± 16.6^c %; ΔTpH≥6(%) [2]: 43.2 ± 18.2%; Mean (pH) [3]: 4.8 ± 1.8 pH; Median (pH) [3]: 4.3 ± 1.7 pH; TpH≥3(%) [3]: 62.4 ± 35.6%; TpH≥4(%) [3]: 52.1 ± 41.3%; TpH≥6(%) [3]: 34.4 ± 28.0%; ΔMean (pH) [3]: 1.6 ± 0.9^c pH; ΔMedian (pH) [3]: 2.3 ± 1.7 pH; ΔTpH≥3(%) [3]: 38.5 ± 26.5^c %; ΔTpH≥4 (%) [3]: 29.5 ± 29.9%; ΔTpH≥6(%) [3]: 14.1 ± 12.6^c %; Mean (pH) (CYP2C19 IM (n = 10), 0–4 h): 5.6 ± 2.2 pH; Median (pH) (CYP2C19 IM (n = 10), 0–4 h): 6.2 ± 2.8 pH; TpH≥3(%) (CYP2C19 IM (n = 10), 0–4 h): 66.9 ± 33.4%; TpH≥4(%) (CYP2C19 IM (n = 10), 0–4 h): 63.6 ± 36.2%; TpH≥6(%) (CYP2C19 IM (n = 10), 0–4 h): 56.6 ± 36.6%; ΔMean (pH) (CYP2C19 IM (n = 10), 0–4 h): 3.3 ± 1.7 pH; ΔMedian (pH) (CYP2C19 IM (n = 10), 0–4 h): 4.3 ± 2.5 pH; ΔTpH≥3(%) (CYP2C19 IM (n = 10), 0–4 h): 56.9 ± 27.1%; ΔTpH≥4 (%) (CYP2C19 IM (n = 10), 0–4 h): 56.2 ± 31.5%; ΔTpH≥6(%) (CYP2C19 IM (n = 10), 0–4 h): 51.3 ± 33.5%; Mean (pH) (CYP2C19 IM (n = 10), 0–24 h): 6.6 ± 0.9 pH; Median (pH) (CYP2C19 IM (n = 10), 0–24 h): 7.0 ± 0.8 pH; TpH≥3(%) (CYP2C19 IM (n = 10), 0–24 h): 89.6 ± 9.2%; TpH≥4(%) (CYP2C19 IM (n = 10), 0–24 h): 85.7 ± 10.6%; TpH≥6(%) (CYP2C19 IM (n = 10), 0–24 h): 67.8 ± 13.4%; ΔMean (pH) (CYP2C19 IM (n = 10), 0–24 h): 3.7 ± 0.6 pH; ΔMedian (pH) (CYP2C19 IM (n = 10), 0–24 h): 4.9 ± 0.8 pH; ΔTpH≥3(%) (CYP2C19 IM (n = 10), 0–24 h): 65.3 ± 6.2%; ΔTpH≥4 (%) (CYP2C19 IM (n = 10), 0–24 h): 70.0 ± 8.3%; ΔTpH≥6(%) (CYP2C19 IM (n = 10), 0–24 h): 56.7 ± 6.4%; Mean (pH) (CYP2C19 IM (n = 10), 14–24 h): 6.1 ± 0.9 pH; Median (pH) (CYP2C19 IM (n = 10), 14–24 h): 6.2 ± 1.2 pH; TpH≥3(%) (CYP2C19 IM (n = 10), 14–24 h): 88.9 ± 8.9%; TpH≥4(%) (CYP2C19 IM (n = 10), 14–24 h): 80.9 ± 12.6%; TpH≥6(%) (CYP2C19 IM (n = 10), 14–24 h): 50.7 ± 13.6%; ΔMean (pH) (CYP2C19 IM (n = 10), 14–24 h): 2.7 ± 0.9 pH; ΔMedian (pH) (CYP2C19 IM (n = 10), 14–24 h): 3.7 ± 0.9 pH; ΔTpH≥3(%) (CYP2C19 IM (n = 10), 14–24 h): 60.8 ± 19.5%; ΔTpH≥4 (%) (CYP2C19 IM (n = 10), 14–24 h): 55.6 ± 17.3%; ΔTpH≥6(%) (CYP2C19 IM (n = 10), 14–24 h): 27.8 ± 14.7^c %; Mean (pH) (CYP2C19 PM (n = 7), 0–4 h): 5.2 ± 1.1 pH; Median (pH) (CYP2C19 PM (n = 7), 0–4 h): 5.9 ± 1.8 pH; TpH≥3(%) (CYP2C19 PM (n = 7), 0–4 h): 73.7 ± 10.5%; TpH≥4(%) (CYP2C19 PM (n = 7), 0–4 h): 64.8 ± 15.2%; TpH≥6(%) (CYP2C19 PM (n = 7), 0–4 h): 47.7 ± 24.1%; ΔMean (pH) (CYP2C19 PM (n = 7), 0–4 h): 3.5 ± 0.9 pH; ΔMedian (pH) (CYP2C19 PM (n = 7), 0–4 h): 4.2 ± 1.8 pH; ΔTpH≥3(%) (CYP2C19 PM (n = 7), 0–4 h): 69.8 ± 9.5%; ΔTpH≥4 (%) (CYP2C19 PM (n = 7), 0–4 h): 63.2 ± 13.7%; ΔTpH≥6(%) (CYP2C19 PM (n = 7), 0–4 h): 47.3 ± 23.7%; Mean (pH) (CYP2C19 PM (n = 7), 0–24 h): 6.5 ± 1.1 pH; Median (pH) (CYP2C19 PM (n = 7), 0–24 h): 6.7 ± 1.2 pH; TpH≥3(%) (CYP2C19 PM (n = 7), 0–24 h): 89.0 ± 13.3%; TpH≥4(%) (CYP2C19 PM (n = 7), 0–24 h): 85.0 ± 16.4%; TpH≥6(%) (CYP2C19 PM (n = 7), 0–24 h): 72.2 ± 19.8%; ΔMean (pH) (CYP2C19 PM (n = 7), 0–24 h): 4.1 ± 1.1^a pH; ΔMedian (pH) (CYP2C19 PM (n = 7), 0–24 h): 4.8 ± 1.2 pH; ΔTpH≥3(%) (CYP2C19 PM (n = 7), 0–24 h): 68.6 ± 15.3^a %; ΔTpH≥4 (%) (CYP2C19 PM (n = 7), 0–24 h): 74.6 ± 16.6^a %; ΔTpH≥6(%) (CYP2C19 PM (n = 7), 0–24 h): 68.8 ± 17.9^a %; Mean (pH) (CYP2C19 PM (n = 7), 14–24 h): 6.1 ± 1.4 pH; Median (pH) (CYP2C19 PM (n = 7), 14–24 h): 5.9 ± 2.0 pH; TpH≥3(%) (CYP2C19 PM (n = 7), 14–24 h): 87.3 ± 22.7%; TpH≥4(%) (CYP2C19 PM (n = 7), 14–24 h): 82.9 ± 26.0%; TpH≥6(%) (CYP2C19 PM (n = 7), 14–24 h): 64.4 ± 25.6^a %; ΔMean (pH) (CYP2C19 PM (n = 7), 14–24 h): 3.8 ± 1.3^a pH; ΔMedian (pH) (CYP2C19 PM (n = 7), 14–24 h): 4.1 ± 1.9^a pH; ΔTpH≥3(%) (CYP2C19 PM (n = 7), 14–24 h): 76.9 ± 20.0^a %; ΔTpH≥4 (%) (CYP2C19 PM (n = 7), 14–24 h): 75.9 ± 22.4^a %; ΔTpH≥6(%) (CYP2C19 PM (n = 7), 14–24 h): 59.0 ± 24.6^a^,^b %; Mean (pH) [4]: 5.3 ± 2.0 pH; Median (pH) [4]: 5.5 ± 2.5 pH; TpH≥3(%) [4]: 70.6 ± 25.1%; TpH≥4(%) [4]: 64.8 ± 28.6%; TpH≥6(%) [4]: 50.5 ± 38.4%; ΔMean (pH) [4]: 3.0 ± 1.2 pH
